The source of these data is patent US20020068274A1, “Novel method for assessing recoding in vitro and in vivo” (priority 2000, published 2002).

The subject of one assay is transformed cell lines. The note with it: cited from earlier work.
The next assay concerns antizyme. The note with it: cited from earlier work.
The target of assay [1] is Ova257-264-specific B3Z hybridoma. In words: β-galactosidase-based T hybridoma stimulation assay. On the set-up: species or system mouse. The note with it: L-Kb cells infected with rVV at 10 pfu/cell or pulsed with peptide 10^-9 M; FIGS. 4, 5. The source says:
FIG. 4. The TK frameshifting element directs expression and in vitro presentation of Ova257-264 that has been shifted to RF+1. The TK frameshifting element was inserted into the SphI site of NP/Ova257-264, shifiting all downstream NP/Ova257-264-encoding sequence, including Ova257-264, into RF+1 (TK-FS). Negative and positive control TK sequences (TK-NC, and TK-IF respectively) were also inserted. L-K^b cells were infected overnight with rVVs expressing these three constructs, along with a negative control VV (VV-NC). […]
Assays for epitope expression based upon use of the B3Z T hybridoma that produces β-galactosidase upon activation, have been described previously (Wherry, et al, J. Immunol 163, no. 7:3735, 1999). […] After overnight incubation, β-galactosidase production was assessed using the fluorogenic substrate methyl umbelliferone-βgalactoside as described by Sanderson and Shastri (Sanderson and N. Shastri, Internal Immunology 158:3227, 1997).
The frameshifting element derived from the mutant (TK-FS), as well as control sequences, in which the G run required for frameshifting was deleted (TK-NC), were tested following insertion into the SphI site of the NP/Ova257-264 construct (see FIG. 2) and recognition of Ova257-264 was monitored. […]

In the case of `N=C(N)NCCCCN` [agmatine], in the assay on transformed cell lines, the “growth of transformed cell lines” value was “growth inhibition of transformed cell lines”. Besides, in the assay with antizyme, the polyamine levels result was “lowered polyamine levels”. In the assay on antizyme (via effect on +1 frameshifting), the antizyme expression entry was “capable of stimulating antizyme expression”.

For the compound “Ova257-264: synthetic version of the H-2Kb-restricted epitope within ovalbumin (ESIINFEK; UniProt P01012 257-264, looked up, fragment)”, the “Kb/Ova257-264-specific recognition (β-galactosidase production by B3Z versus BWZ)” value in assay [1] is reported as “strong specific response”.
